Legend:
[1] = tested on: STS26T and ST8814 MPNST cells; experiment: Flow cytometry cell cycle analysis; type: cell-based, human; conditions: one- or two-IC50 doses, three days
Protocol: Actively-growing cells were seeded in 96-well plates (Sarstedt) at 2,000 cells/well for Ben-Men-1 and RD cells, 30,000 cells/well for 697 and 697-R cells, and 4,000 cells/well for all other cell lines. The following day, cells were treated with various concentrations of each compound or and 0.05% of DMSO as the control for six days for MG-63 cells or three days for all remaining cell lines. Cell proliferation was assessed using resazurin assays and the IC50 value calculated. Cell cycle analysis was performed accordingly. Burns et al., Cancer Res., 73:792-803 (2013).

Ewing sarcoma PDX = Ewing sarcoma PDX model (NCH-EWS-2); type: in vivo, NSG mouse; conditions: 3 mg/kg IP every other day, four weeks, vs vehicle
Source text: To generate PDX models, the Nationwide Children's Hospital Institutional Review Board approved the Human Subjects Protocol for the acquisition of surgically-removed tumor specimens from patients and informed patient consents were obtained. Shortly after resection, fresh tumor tissues with their histological types confirmed by a specialized pathologist were placed in Dulbecco's-modified Eagle (DME) medium (Invitrogen) and brought to the research laboratory. A piece of tumor fragment was implanted subcutaneously on the dorsal right flank area in an eight-to-ten week-old immunodeficient mouse under anesthesia. Tumors were allowed to grow until established, at which time the established PDX tumors were repeatedly passed from one animal to the next or cryopreserved. For Roc treatment, actively-growing PDXs for a Ewing sarcoma (NCH-EWS-2), an osteosarcoma (NCH—OS-7), and an alveolar rhabdomyosarcoma (NCH-ARMS-2) were excised and cut into 5-mm pieces. Each tumor piece was re-implanted into an NSG mouse and tumor growth was monitored. Once noted, the tumor sizes in the axial plane at its greatest dimension (L) and the orthogonal short dimension (S) were measured twice weekly using a Fowler Ultra-Cal Electronic Caliper. Approximated tumor volumes were calculated using the formula V=(L×S^2)/2. […]

[2] = tested on: ST8814-Luc MPNST xenografts; experiment: Orthotopic ST8814-Luc MPNST cell line-derived xenograft, bioluminescence imaging and IHC; type: in vivo, NSG mice; conditions: 4 weeks
Protocol: All animal work was performed according to the protocols approved by the Institutional Animal Care and Use Committee at Nationwide Children's Hospital. For animal dosing, Roc was formulated in 30% hydroxypropyl-β-cyclodextrin (HPβCD; CTD, Inc.). To generate the orthotopic MPNST CDX model, ST8814-Luc cells were injected into the sciatic nerves of NSG mice (NOD.Cg-Prkdc^scid Il2rg^imlWjl/SzJ; The Jackson Laboratory), followed by bioluminescence imaging (BLI) to monitor tumor growth. Burns and Chang, Methods Mol Biol., 1427:59-72 (2016). Mice bearing established ST8814-Luc tumors, as defined by increasing bioluminescence signals over at least two time points, were randomized into three groups (n=10 mice) and treated with the predetermined maximum tolerated dose (MTD) of Roc at 4 mg/kg by IP or 1.2 mg/kg by oral gavage, or the vehicle HPβCD every other day. Tumor growth was measured weekly by BLI. Following 4 weeks of treatment, tumors were harvested for histological analysis.
Sections from Roc or vehicle-treated MPNST tumors were prepared and stained with hematoxylin and eosin (H&E) or immunostained for p-histone H3(Ser^10) (pH3; ab32107, Abeam) or CC3 (#9664, Cell Signaling) as previously described. Burns et al., Cancer Res., 73:792-803 (2013).
To evaluate the in vivo activity of Roc, the inventors treated NSG mice bearing luciferase-expressing ST8814-Luc tumors implanted in the sciatic nerve with Roc at the predetermined MTD (4 mg/kg by IP or 1.2 mg/kg oral gavage), or IPβCD as the vehicle control every other day.

[3] = Kinghorn et al. 2016 and NCI Developmental Therapeutics Program study, same conditions; cited from earlier work
in vivo = experiment: in vivo; parameters: species or system mice; conditions: mouse
Protocol: Mice were administered with a 5 mg/kg dose of Roc by intravenous (IV) or intraperitoneal injection (IP) or by oral gavage (PO). Blood samples were collected before and at multiple indicated time-points after dosing (n=3). Plasma samples were obtained by centrifugation and stored at −80° C. To measure plasma concentrations of Roc, a sensitive liquid chromatography coupled with tandem mass spectrometry detection (LC/MS-MS) method was developed. The reference compounds Roc (NSC326408) and pipernyl rocaglate (NSC784086) were provided by the NCI Developmental Therapeutics Program with pipernyl rocaglate used as the internal standard for quantitation. Plasma samples were processed by taking 100 μl of plasma and adding 300 μl of methanol containing 0.05 μM of internal standard. The samples were vortexed and centrifuged at 10,000×g for 10 min. The supernatant was collected and evaporated to dryness. Dried samples were reconstituted in 100 μl of 1:1 water:acetonitrile and centrifuges at 10,000×g for 3 min, followed by injecting 10 μl into an HPLC. Compounds of interest were separated on a Kinetex EVO C18 column (150×2.1 mm) with a flow rate of 0.25 ml/min. Mobile phase consisted of 80% ammonium formate buffer (1 g/L) and 20% acetonitrile at the start of the run, and a linear gradient to 10% ammonium formate/90% acetonitrile was applied over 14 min. Roc and the internal standard were identified by MS/MS using a Thema) Vantage TSQ run in positive ion mode. The transitions used were m/z 506 to m/z 352 (Roc) and m/z 570 to m/z 450 (internal standard). […] Samples found to be above 2.5 μM of Roc were reanalyzed after dilution with blank plasma. Absolute recoveries of Roc from plasma were to be >98%. AUC estimations were made manually using the trapezoidal method of integration.
To examine the oral bioavailability, PK studies were conducted to compare mice that had been dosed with Roc at 5 mg/kg via the IV, IP, or PO route, followed by measuring Roc concentrations in blood samples collected at various times post dosing. Two separate studies with three mice at each time point for each route of dosing were conducted. […] Areas under the plasma concentration-time curves (AUC0-7h) produced 245 μM min of exposure in the IV route and 142 μM min of exposure in the PO route. The concentrations of Roc appeared to more slowly decline in the plasma over 24 h (T1/2=2.4 hour) with the PO route compared to those dosed by IV route (T1/2=˜1.5 hour).

## COc1ccc([C@@]23Oc4cc(OC)cc(OC)c4[C@]2(O)[C@H](O)[C@H](C(=O)N(C)C)[C@H]3c2ccccc2)cc1 [Roc, rocaglamide]
[1]
  G2/M fraction: marked increase in the GVM fraction
Ewing sarcoma PDX
  tumor growth inhibition: ~90%
[2]; 1.2 mg/kg PO (oral gavage) every other day, vehicle ~17,000-fold
  increase of tumor bioluminescence over four weeks: ~470 fold
[2]; 1.2 mg/kg oral gavage every other day
  reduction in tumor bioluminescence compared to controls: > 95%
[2]; 4 mg/kg IP every other day
  reduction in tumor luminescence compared to controls: > 99%
[2]; IP- or orally-delivered, IHC
  phospho-histone H3 labeling in tumors vs vehicle: much higher prevalence
[2]; Roc-treated tumors, IHC
  cleaved caspase-3 positive cells in tumors: increased numbers
[3]
  pulmonary toxicity in dogs: did not induce the toxicity
In vivo; iv, 5 mg/kg
  Area under the plasma concentration-time curve (AUC0-7h): 245 µM·min
  half-life: ~1.5 h
In vivo; po
  improvement of oral bioavailability over silvestrol: > 25 fold
In vivo; po, 5 mg/kg
  Area under the plasma concentration-time curve (AUC0-7h): 142 µM·min
  Cmax: ~800 nM
  T1/2: 2.4 h
  bioavailability: ~50%

Reference: patent publication US12403121B2, “Anticancer rocaglamide derivatives” (priority 2018, dated 2025)
